Where two headings read alike, the source gives them in different places.
Molecular target: hT2R8 (Homo sapiens (Human), UniProt Q9NYW2)
Assay: hT2R8 antagonist high-throughput FLIPR assay, stable cell line with G16g44, agonist andrographolide
Format: cell-based
How it was run: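 Antagonist screen: compounds co-applied with agonist andrographolide at 200 μM, a dose giving 70–80% of maximal hT2R8 activation. Fluorescence measured by FLIPR in a stable HEK293 line expressing both hT2R8 and the promiscuous G16g44 protein.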

[1] = read-out: IC50 on hT2R8 bitter receptor
[2] = table after Example 10-97, read-out: hT2R8 IC50
[3] = table after Example 12-37, read-out: hT2R8 IC50
[4] = unit uM, read-out: IC50 on hT2R08 bitter receptor

hT2R8, sequence (Q9NYW2 whole entry): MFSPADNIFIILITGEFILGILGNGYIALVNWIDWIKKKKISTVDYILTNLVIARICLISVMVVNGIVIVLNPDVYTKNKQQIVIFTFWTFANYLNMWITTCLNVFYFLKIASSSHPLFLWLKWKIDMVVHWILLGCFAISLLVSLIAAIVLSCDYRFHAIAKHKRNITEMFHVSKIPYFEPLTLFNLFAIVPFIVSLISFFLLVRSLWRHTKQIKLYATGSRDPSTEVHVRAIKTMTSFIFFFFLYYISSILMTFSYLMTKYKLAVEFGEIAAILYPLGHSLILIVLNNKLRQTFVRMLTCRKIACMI

| Compound | IC50 (Table A, read-out: hT2R8 IC50) [µM] | IC50 [1] [µM] | also measured |
| --- | --- | --- | --- |
| Cc1noc(C)c1Cn1cc(NC(=O)c2cc3c(cc2Br)OCCO3)cn1 [Example 4-89, 7-bromo-N-(1-((3,5-dimethylisoxazol-4-yl)methyl)-1H-pyrazol-4-yl)-2,3-dihydrobenzo[b][1,4]dioxine-6-carboxamide] | 0.3 |  |  |
| CNc1cnn(Cc2c(C)noc2C)c1 [Example 4-63, 1-((3,5-dimethylisoxazol-4-yl)methyl)-N-methyl-1H-pyrazol-4-amine] | 8.76 |  |  |
| Cc1noc(C)c1Cn1cc(NC(=O)c2ccc3c(c2)OCO3)cn1 [Example 4-8, N-(1-((3,5-dimethylisoxazol-4-yl)methyl)-1H-pyrazol-4-yl)benzo[d][1,3]dioxole-5-carboxamide] |  | 0.2 |  |
| CC(=O)OC(C(=O)Nc1cnn(Cc2c(C)noc2C)c1)c1ccccc1 (stereo not shown) [Example 4-39, 2-(1-((3,5-dimethylisoxazol-4-yl)methyl)-1H-pyrazol-4-ylamino)-2-oxo-1-phenylethyl acetate] | 0.83 |  |  |
| Cc1noc(C)c1Cn1cc(N2C(=O)C(C)N(Cc3ccccc3)C2=O)cn1 (stereo not shown) [Example 10-43, 1-benzyl-3-(1-((3,5-dimethylisoxazol-4-yl)methyl)-1′-1-pyrazol-4-yl)-5-methylimidazolidine-2,4-dione] |  | 0.02 | IC50 [2]: 0.02 µM |
| Cc1noc(C)c1Cn1cc(N2C(=O)CN(CC3CCCO3)C2=O)cn1 (stereo not shown) [Example 10-73] |  | 1.4 | IC50 [2]: 1.36 µM |
| COc1ccc(CC(=O)Nc2cnn(Cc3c(C)noc3C)c2)cc1 [Example 4-33, N-(1-((3,5-dimethylisoxazol-4-yl)methyl)-1H-pyrazol-4-yl)-2-(4-methoxyphenyl)acetamide] | 0.99 |  |  |
| COc1ccccc1S(=O)(=O)Nc1cnn(Cc2c(C)noc2C)c1 [Example 4-103, N-(1-((3,5-dimethylisoxazol-4-yl)methyl)-1H-pyrazol-4-yl)-2-methoxybenzenesulfonamide] | 3.8 |  |  |
| COc1ccc(CCN2C(=O)N(c3cnn(Cc4c(C)noc4C)c3)C(=O)C2(C)C)cc1OC [Example 12-49, 1-(3,4-dimethoxyphenethyl)-3-(1-((3,5-dimethylisoxazol-4-yl)methyl)-1H-pyrazol-4-yl)-5,5-dimethylimidazolidine-2,4-dione] |  |  | IC50 [3]: 0.13 µM |
| Cc1noc(C)c1Cn1cc(N2C(=O)CN(Cc3ccccn3)C2=O)cn1 [Example 10-54, 3-(1-((3,5-dimethylisoxazol-4-yl)methyl)-1H-pyrazol-4-yl)-1-(pyridin-2-ylmethyl)imidazolidine-2,4-dione] |  | 0.68 | IC50 [2]: 0.609 µM |
| Cc1noc(C)c1Cn1cc(NC(=O)c2cccn2C)cn1 [Example 4-49, N-(1-((3,5-dimethylisoxazol-4-yl)methyl)-1H-pyrazol-4-yl)-1-methyl-1H-pyrrole-2-carboxamide] | 3.4 |  |  |
| COc1cccc(CCN2C(=O)N(c3cnn(Cc4c(C)noc4C)c3)C(=O)C2(C)C)c1 [Example 12-60, 3-(1-((3,5-dimethylisoxazol-4-yl)methyl)-1H-pyrazol-4-yl)-1-(3-methoxyphenethyl)-5,5-dimethylimidazolidine-2,4-dione] |  |  | IC50 [3]: 0.25 µM |
| Cc1noc(C)c1Cn1cc(-n2c(=O)[nH]c3ccccc3c2=O)cn1 [Example 9-4, 3-(1-((3,5-dimethylisoxazol-4-yl)methyl)-1H-pyrazol-4-yl)quinazoline-2,4(1H,3H)-dione] |  | 1.5 |  |
| Cc1noc(C)c1Cn1cc(N2C(=O)N(CCOc3ccccc3)C(C)(C)C2=O)cn1 [Example 12-27, 3-(1-((3,5-dimethylisoxazol-4-yl)methyl)-1H-pyrazol-4-yl)-5,5-dimethyl-1-(2-phenoxyethyl)imidazolidine-2,4-dione] |  | 0.35 |  |
| Cc1noc(C)c1Cn1cc(NC(=O)c2ccoc2C)cn1 [Example 4-51, N-(1-((3,5-dimethylisoxazol-4-yl)methyl)-1H-pyrazol-4-yl)-2-methylfuran-3-carboxamide] | 7.87 |  |  |
| Cc1noc(C)c1Cn1cc(N2C(=O)CN(Cc3ccccc3[S+](C)[O-])C2=O)cn1 (stereo not shown) [Example 10-17, 33-(1-((3,5-dimethylisoxazol-4-yl)methyl)-1H-pyrazol-4-yl)-1-(2-(methylsulfinyl)benzyl)imidazolidine-2,4-dione] |  |  | IC50 [2]: 0.412 µM; IC50 [4]: 0.4 µM |
| COc1cc(C(=O)Nc2cnn(Cc3c(C)noc3C)c2)ccc1O [Example 4-20, N-(1-((3,5-dimethylisoxazol-4-yl)methyl)-1H-pyrazol-4-yl)-4-hydroxy-3-methoxybenzamide] | 0.48 |  |  |
| Cc1noc(C)c1Cn1cc(-n2c(=O)n(C)n(C)c2=O)cn1 [Example 10-69, 4-(1-((3,5-dimethylisoxazol-4-yl)methyl)-1H-pyrazol-4-yl)-1,2-dimethyl-1,2,4-triazolidine-3,5-dione] |  | 0.6 | IC50 [2]: 0.707 µM |

| Compound | IC50 (Table A, read-out: hT2R8 IC50) [µM] | IC50 [1] [µM] | also measured |
| --- | --- | --- | --- |
| Cc1ccc(CN2C(=O)N(c3cnn(Cc4c(C)noc4C)c3)C(=O)C2(C)C)cc1C [Example 12-83, 1-(3,4-dimethylbenzyl)-3-(1-((3,5-dimethylisoxazol-4-yl)methyl)-1H-pyrazol-4-yl)-5,5-dimethylimidazolidine-2,4-dione] |  |  | IC50 [3]: 1.22 µM |
| Cc1noc(C)c1Cn1cc(N2C(=O)N(Cc3cccc(C(F)(F)F)c3)C(C)(C)C2=O)cn1 [Example 12-84, 3-(1-((3,5-dimethylisoxazol-4-yl)methyl)-1H-pyrazol-4-yl)-5,5-dimethyl-1-(3-(trifluoromethyl)benzyl)imidazolidine-2,4-dione] |  |  | IC50 [3]: 1.54 µM |
| Cc1ccc(CN2C(=O)N(c3cnn(Cc4c(C)noc4C)c3)C(=O)C2(C)C)cc1 [Example 12-81, 3-(1-((3,5-dimethylisoxazol-4-yl)methyl)-1H-pyrazol-4-yl)-5,5-dimethyl-1-(4-methylbenzyl)imidazolidine-2,4-dione] |  |  | IC50 [3]: 0.74 µM |
| Cc1noc(C)c1Cn1cc(NC(=O)CCc2ccccc2)cn1 [Example 4-55, N-(1-((3,5-dimethylisoxazol-4-yl)methyl)-1H-pyrazol-4-yl)-3-phenylpropanamide] | 0.49 |  |  |
| Cc1noc(C)c1Cn1cc(NC(=O)c2cc3c(cc2Cl)OCCO3)cn1 [Example 4-90, 7-chloro-N-(1-((3,5-dimethylisoxazol-4-yl)methyl)-1H-pyrazol-4-yl)-2,3-dihydrobenzo[b][1,4]dioxine-6-carboxamide] | 0.1 |  |  |
| Cc1noc(C)c1Cn1cc(N2C(=O)NC(CC3CCCC3)C2=O)cn1 (stereo not shown) [Example 10-58, 5-(cyclopentylmethyl)-3-(1-((3,5-dimethylisoxazol-4-yl)methyl)-1H-pyrazol-4-yl)imidazolidine-2,4-dione] |  | 0.31 | IC50 [2]: 0.316 µM |
| Cc1noc(C)c1Cn1cc(NC(=O)c2cccc(C#N)c2)cn1 [Example 4-10, 3-cyano-N-(1-((3,5-dimethylisoxazol-4-yl)methyl)-1H-pyrazol-4-yl)benzamide] |  | 0.2 |  |
| Cc1noc(C)c1Cn1cc(N(C)C(=O)[C@@H](C)c2ccccc2)cn1 [Example 4-98, (S)-N-(1-((3,5-dimethylisoxazol-4-yl)methyl)-1H-pyrazol-4-yl)-N-methyl-2-phenylpropanamide] | 2.81 |  |  |
| Cc1noc(C)c1Cn1cc(NC(=O)c2ccc(F)cc2)cn1 [Example 4-23, N-(1-((3,5-dimethylisoxazol-4-yl)methyl)-1H-pyrazol-4-yl)-4-fluorobenzamide] | 1.56 |  |  |
| Cc1noc(C)c1Cn1cc(N2C(=O)CN(C)C2=O)cn1 [Example 10-51, 3-(1-((3,5-dimethylisoxazol-4-yl)methyl)-1H-pyrazol-4-yl)-1-methylimidazolidine-2,4-dione] |  | 0.58 | IC50 [2]: 0.966 µM |
| Cc1noc(C)c1Cn1cc(N2C(=O)CN(Cc3ccccc3O)C2=O)cn1 [Example 10-11, 3-(1-((3,5-dimethylisoxazol-4-yl)methyl)-1H-pyrazol-4-yl)-1-(2-hydroxybenzyl)imidazolidine-2,4-dione] |  |  | IC50 [2]: 0.069 µM; IC50 [4]: 0.07 µM |
| Cc1noc(C)c1Cn1cc(N2C(=O)NC(COCc3ccccc3)C2=O)cn1 (stereo not shown) [Example 10-47, 5-(benzyloxymethyl)-3-(1-((3,5-dimethylisoxazol-4-yl)methyl)-1H-pyrazol-4-yl)imidazolidine-2,4-dione] |  | 0.76 | IC50 [2]: 0.766 µM |
| COC(=O)c1ccc(CN2C(=O)N(c3cnn(Cc4c(C)noc4C)c3)C(=O)C2(C)C)cc1 [Example 12-57, methyl 4-((3-(1-((3,5-dimethylisoxazol-4-yl)methyl)-1H-pyrazol-4-yl)-5,5-dimethyl-2,4-dioxoimidazolidin-1-yl)methyl)benzoate] |  |  | IC50 [3]: 0.23 µM |
| Cc1noc(C)c1Cn1cc(N2C(=O)N/C(=C\c3ccccc3)C2=O)cn1 [Example 10-63, (Z)-5-benzylidene-3-(1-((3,5-dimethylisoxazol-4-yl)methyl)-1H-pyrazol-4-yl)imidazolidine-2,4-dione] |  | 0.34 |  |
| Cc1noc(C)c1Cn1cc(-n2c(=O)n(C)n(CCOc3ccccc3)c2=O)cn1 [Example 10-67, 4-(1-((3,5-dimethylisoxazol-4-yl)methyl)-1H-pyrazol-4-yl)-1-methyl-2-(2-phenoxyethyl)-1,2,4-triazolidine-3,5-dione] |  | 0.031 |  |
| Cc1noc(C)c1Cn1cc(N2C(=O)NC(CC(=O)Nc3ccccc3)C2=O)cn1 (stereo not shown) [Example 10-48, 2-(1-(1-((3,5-dimethylisoxazol-4-yl)methyl)-1H-pyrazol-4-yl)-2,5-dioxoimidazolidin-4-yl)-N-phenylacetamide] |  | 0.75 | IC50 [2]: 0.747 µM |
| Cc1noc(C)c1Cn1cc(N2C(=O)N(Cc3ccc(F)cc3F)C(C)(C)C2=O)cn1 [Example 12-74, 1-(2,4-difluorobenzyl)-3-(1-((3,5-dimethylisoxazol-4-yl)methyl)-1H-pyrazol-4-yl)-5,5-dimethylimidazolidine-2,4-dione] |  |  | IC50 [3]: 0.53 µM |
| Cc1noc(C)c1Cn1cc(N2C(=O)N(Cc3ccc(CO)cc3)C(C)(C)C2=O)cn1 [Example 12-88, 3-(1-((3,5-dimethylisoxazol-4-yl)methyl)-1H-pyrazol-4-yl)-1-(4-(hydroxymethyl)benzyl)-5,5-dimethylimidazolidine-2,4-dione] |  |  | IC50 [3]: 0.36 µM |
